Laboratory results published in US11046686B2, “Thiadiazole IRAK4 compounds” (Gilead Sciences, Inc., priority 2018, dated 2021).

What follows are compounds tested on TNFα (assay: IRAK4 Monocyte TNFα Cell Based Assay). Conditions: human monocytes; second part of Table 2, compounds 33-343; unit inferred; read-out: EC50 MONO TNF HTRF.
Set-up: species or system human
Procedure, shortened: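 TNFα release quantified by HTRF (cryptate/XL665 antibody pair, overnight at RT) after 1 h compound pre-incubation (0.1% DMSO) and 4 h LPS challenge at 50 pg/ml, 37 °C, 5,000 monocytes per well. Signal ratio normalised between unstimulated (0%) and stimulated (100%) controls.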

Row | SMILES | EC50
1 | C[C@H](C#N)Nc1cc(-c2ccc3cc(C#N)cnn23)ncc1-c1nnc([C@H]2CC[C@H](NC(=O)C3CC3)CC2)s1 [Example 160, N-((1R,4r)-4-(5-(4-(((R)-1-cyanoethyl)amino)-6-(3-cyanopyrrolo[1,2-b]pyridazin-7-yl)pyridin-3-yl)-1,3,4-thiadiazol-2-yl)cyclohexyl)cyclopropanecarboxamide] | 2.8 nM
2 | CC(C)Nc1cc(-c2ccc3cc(C#N)cnn23)ncc1-c1nnc(C(=O)N2CC[C@@H](CO)C2)s1 [Example 216] | 18.1 nM
3 | COC(=O)N[C@H]1CC[C@H](Nc2cc(-c3ccc4cc(C#N)cnn34)ncc2-c2nnc([C@H]3CC[C@H](NC(C)=O)CC3)s2)CC1 [Example 34, methyl ((1R,4r)-4-((5-(5-((1r,4R)-4-acetamidocyclohexyl)-1,3,4-thiadiazol-2-yl)-2-(3-cyanopyrrolo[1,2-b]pyridazin-7-yl)pyridin-4-yl)amino)cyclohexyl)carbamate] | 4.9 nM
4 | CC(C)Nc1cc(-c2ccc3cc(C#N)cnn23)ncc1-c1nnc([C@H]2C[C@@](C)(O)C2)s1 [Example 199, 7-(5-(5-((1s,3s)-3-hydroxy-3-methylcyclobutyl)-1,3,4-thiadiazol-2-yl)-4-(isopropylamino)pyridin-2-yl)pyrrolo[1,2-b]pyridazine-3-carbonitrile] | 38.3 nM
5 | CC(=O)N[C@H]1CCN(c2nnc(-c3cnc(-c4ccc5cc(C#N)cnn45)cc3NC(C)C)s2)C1 [Compound 331] | 81.4 nM
6 | COC(=O)NC[C@H]1C[C@H](Nc2cc(-c3ccc4cc(C#N)cnn34)ncc2-c2nnc(N3C[C@H]4CC[C@@H](C3)[C@@H]4NC(C)=O)s2)C1 [Example 52] | 4.1 nM
7 | CC(=O)N1CCC2(CC1)CN(c1nnc(-c3cnc(-c4ccc5cc(C#N)cnn45)cc3NC(C)C)s1)C2 [Example 67, 7-(5-(5-(7-acetyl-2,7-diazaspiro[3.5]nonan-2-yl)-1,3,4-thiadiazo1-2-yl)-4-(isopropylamino)pyridin-2-yl)pyrrolo[1,2-b]pyridazine-3-carbonitrile] | 10.4 nM
8 | CC(C)Nc1cc(-c2ccc3cc(C#N)cnn23)ncc1-c1nnc(N2CC3(CCNC3=O)C2)s1 [Example 164] | 17.5 nM
9 | CC(C)Nc1cc(-c2ccc3cc(C#N)cnn23)ncc1-c1nnc(N2CCN(C3COC3)CC2)s1 [Example 304] | 9.8 nM

Continued, values first:

Row | EC50 | SMILES
10 | 4.2 nM | COC(=O)N1CCN(C(=O)N[C@@H]2[C@@H]3CC[C@H]2CN(c2nnc(-c4cnc(-c5ccc6cc(C#N)cnn56)cc4NC(C)C)s2)C3)CC1 [Example 105, methyl 4-(((1R,5S,8s)-3-(5-(6-(3-cyanopyrrolo[1,2-b]pyridazin-7-yl)-4-(isopropylamino)pyridin-3-yl)-1,3,4-thiadiazol-2-yl)-3-azabicyclo[3.2.1]octan-8-yl)carbamoyl)piperazine-1-carboxylate]
11 | 37.8 nM | CC(=O)N[C@H]1[C@@H]2COC[C@H]1CN(c1nnc(-c3cnc(-c4ccc5cc(C#N)cnn45)cc3NC(C)C)s1)C2 [Example 182, N-((1R,5S,9r)-7-(5-(6-(3-cyanopyrrolo[1,2-b]pyridazin-7-yl)-4-(isopropylamino)pyridin-3-yl)-1,3,4-thiadiazol-2-yl)-3-oxa-7-azabicyclo[3.3.1]nonan-9-yl)acetamide]
12 | 21.7 nM | CC(C)Nc1cc(-c2ccc3cc(C#N)cnn23)ncc1-c1nnc(N2C[C@H]3CC[C@@H](C2)[C@@H]3NC(=O)C(C)(C)C(=O)O)s1 [Example 97]
13 | 8.5 nM | CC(C)Nc1cc(-c2ccc3cc(C#N)cnn23)ncc1-c1nnc(N2C[C@H]3CC[C@@H](C2)[C@@H]3N)s1 [Example 60, 7-(5-(5-((1R,5S,8s)-8-amino-3-azabicyclo[3.2.1]octan-3-yl)-1,3,4-thiadiazol-2-yl)-4-(isopropylamino)pyridin-2-yl)pyrrolo[1,2-b]pyridazine-3-carbonitrile]
